Data as given in publication PMC6458995, “MAP4K4 Inhibition Promotes Survival of Human Stem Cell-Derived Cardiomyocytes and Reduces Infarct Size In Vivo” (Cell Stem Cell, 2019).

Legend:
Test in all cases: Dundee kinase panel
Assay type in all cases: biochemical
Settings in all cases: for remaining activity at 1 µM: read-out: residual activity
SGK1 = molecular target: T1, SGK1 (Homo sapiens, UniProt O00141)
T1 construct: lines 1-140) and Reaction Biology
T1 sequence (O00141 1-431): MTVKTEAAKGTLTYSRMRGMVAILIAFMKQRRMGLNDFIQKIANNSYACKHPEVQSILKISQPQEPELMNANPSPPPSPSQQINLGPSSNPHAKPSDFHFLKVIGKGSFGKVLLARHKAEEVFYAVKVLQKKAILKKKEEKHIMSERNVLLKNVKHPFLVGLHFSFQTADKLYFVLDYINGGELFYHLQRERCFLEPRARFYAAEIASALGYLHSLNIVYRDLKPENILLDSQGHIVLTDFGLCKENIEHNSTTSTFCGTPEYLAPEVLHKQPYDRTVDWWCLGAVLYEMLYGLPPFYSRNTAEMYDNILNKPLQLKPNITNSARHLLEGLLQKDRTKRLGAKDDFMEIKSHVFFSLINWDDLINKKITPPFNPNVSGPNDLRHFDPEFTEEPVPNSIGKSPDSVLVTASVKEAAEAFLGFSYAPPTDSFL
Method: (§1) Compounds were screened at 1 μM. For key hits, pIC50 values were then determined by HTRF as above. […] Stability in mouse and human liver microsomes was determined by Cyprotex.

DYRK2 = molecular target: T2, DYRK2 (Homo sapiens, UniProt Q92630)
T2 construct: lines 1-140) and Reaction Biology
T2 sequence (Q92630 1-601): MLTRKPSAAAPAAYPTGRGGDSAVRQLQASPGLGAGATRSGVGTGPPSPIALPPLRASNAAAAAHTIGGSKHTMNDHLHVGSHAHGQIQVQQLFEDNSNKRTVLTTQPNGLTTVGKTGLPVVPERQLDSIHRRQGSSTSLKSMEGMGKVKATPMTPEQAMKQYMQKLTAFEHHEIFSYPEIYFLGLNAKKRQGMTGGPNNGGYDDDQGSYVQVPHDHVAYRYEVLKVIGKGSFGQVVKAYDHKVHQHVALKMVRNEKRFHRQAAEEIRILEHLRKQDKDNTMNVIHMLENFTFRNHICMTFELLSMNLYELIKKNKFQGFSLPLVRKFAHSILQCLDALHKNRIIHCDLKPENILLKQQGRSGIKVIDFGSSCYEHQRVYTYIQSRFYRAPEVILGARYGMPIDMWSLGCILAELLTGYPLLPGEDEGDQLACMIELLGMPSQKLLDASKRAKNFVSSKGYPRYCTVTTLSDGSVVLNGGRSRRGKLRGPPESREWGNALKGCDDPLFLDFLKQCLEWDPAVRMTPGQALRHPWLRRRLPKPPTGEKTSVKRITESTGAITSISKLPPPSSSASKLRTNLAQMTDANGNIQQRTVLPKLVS
Method: as §1

YES1 = molecular target: T3, YES1 (Homo sapiens, UniProt P07947)
T3 construct: lines 1-140) and Reaction Biology
Method: as §1

PAK4 = molecular target: T4, PAK4 (Homo sapiens, UniProt O96013)
T4 construct: lines 1-140) and Reaction Biology
Method: as §1

TBK1 = molecular target: T5, TBK1 (Homo sapiens, UniProt Q9UHD2)
T5 construct: lines 1-140) and Reaction Biology
T5 sequence (Q9UHD2 1-729): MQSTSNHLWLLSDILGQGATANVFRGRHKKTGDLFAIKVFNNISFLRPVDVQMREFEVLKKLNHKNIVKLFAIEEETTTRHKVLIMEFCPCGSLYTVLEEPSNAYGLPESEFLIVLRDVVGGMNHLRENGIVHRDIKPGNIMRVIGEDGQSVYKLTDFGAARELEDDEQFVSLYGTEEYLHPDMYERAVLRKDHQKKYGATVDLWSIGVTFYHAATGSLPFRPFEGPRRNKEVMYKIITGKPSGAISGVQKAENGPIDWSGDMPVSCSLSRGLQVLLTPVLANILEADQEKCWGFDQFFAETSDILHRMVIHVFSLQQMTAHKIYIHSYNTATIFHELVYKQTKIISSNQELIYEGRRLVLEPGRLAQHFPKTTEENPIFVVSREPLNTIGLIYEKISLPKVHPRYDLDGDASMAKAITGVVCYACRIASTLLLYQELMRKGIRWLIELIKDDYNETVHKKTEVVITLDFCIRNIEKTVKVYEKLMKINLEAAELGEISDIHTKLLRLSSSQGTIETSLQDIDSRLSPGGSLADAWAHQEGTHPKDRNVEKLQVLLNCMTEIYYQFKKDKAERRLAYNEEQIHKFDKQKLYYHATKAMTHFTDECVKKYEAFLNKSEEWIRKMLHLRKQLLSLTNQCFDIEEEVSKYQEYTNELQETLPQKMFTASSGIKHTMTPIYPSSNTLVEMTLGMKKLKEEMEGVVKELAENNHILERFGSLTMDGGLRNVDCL
Method: as §1

PAK5 = molecular target: T6, PAK5 (Homo sapiens, UniProt Q9P286)
T6 construct: lines 1-140) and Reaction Biology
Method: as §1

PDK1 = molecular target: T7, PDK1 (Homo sapiens, UniProt O15530)
T7 construct: lines 1-140) and Reaction Biology
T7 sequence (O15530 1-556): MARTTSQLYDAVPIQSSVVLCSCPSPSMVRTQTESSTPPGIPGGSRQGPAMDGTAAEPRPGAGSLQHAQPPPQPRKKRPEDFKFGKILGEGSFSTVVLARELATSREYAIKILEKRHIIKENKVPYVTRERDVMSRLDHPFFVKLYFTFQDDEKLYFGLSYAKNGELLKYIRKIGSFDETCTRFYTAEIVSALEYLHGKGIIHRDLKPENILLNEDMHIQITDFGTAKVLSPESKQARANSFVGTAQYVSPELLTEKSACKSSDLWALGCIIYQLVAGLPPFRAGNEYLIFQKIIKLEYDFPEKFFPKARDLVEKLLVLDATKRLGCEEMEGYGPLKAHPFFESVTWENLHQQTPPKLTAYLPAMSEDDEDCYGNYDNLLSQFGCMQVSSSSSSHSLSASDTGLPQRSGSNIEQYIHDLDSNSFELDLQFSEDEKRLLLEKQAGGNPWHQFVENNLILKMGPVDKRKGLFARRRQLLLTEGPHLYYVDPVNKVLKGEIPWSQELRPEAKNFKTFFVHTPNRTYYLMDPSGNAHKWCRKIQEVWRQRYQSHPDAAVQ
Method: as §1

PIM3 = molecular target: T8, PIM3 (Homo sapiens, UniProt Q86V86)
T8 construct: lines 1-140) and Reaction Biology
Method: as §1

BRK = molecular target: T9, BRK (Homo sapiens, UniProt Q13882)
T9 construct: lines 1-140) and Reaction Biology
Method: as §1

T9 sequence (Q13882 whole entry): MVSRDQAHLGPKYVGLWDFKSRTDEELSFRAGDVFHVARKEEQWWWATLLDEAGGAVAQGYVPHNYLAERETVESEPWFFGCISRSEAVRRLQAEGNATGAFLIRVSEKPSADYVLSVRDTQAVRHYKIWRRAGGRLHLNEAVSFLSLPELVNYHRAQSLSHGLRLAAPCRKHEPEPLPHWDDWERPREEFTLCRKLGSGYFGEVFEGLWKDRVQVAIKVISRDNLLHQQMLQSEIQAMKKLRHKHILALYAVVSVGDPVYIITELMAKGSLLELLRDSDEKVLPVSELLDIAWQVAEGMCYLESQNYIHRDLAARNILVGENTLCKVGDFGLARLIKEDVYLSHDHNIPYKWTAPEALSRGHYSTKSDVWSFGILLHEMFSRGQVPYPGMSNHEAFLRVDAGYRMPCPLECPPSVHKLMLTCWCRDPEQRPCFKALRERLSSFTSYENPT
T4 sequence (O96013 whole entry): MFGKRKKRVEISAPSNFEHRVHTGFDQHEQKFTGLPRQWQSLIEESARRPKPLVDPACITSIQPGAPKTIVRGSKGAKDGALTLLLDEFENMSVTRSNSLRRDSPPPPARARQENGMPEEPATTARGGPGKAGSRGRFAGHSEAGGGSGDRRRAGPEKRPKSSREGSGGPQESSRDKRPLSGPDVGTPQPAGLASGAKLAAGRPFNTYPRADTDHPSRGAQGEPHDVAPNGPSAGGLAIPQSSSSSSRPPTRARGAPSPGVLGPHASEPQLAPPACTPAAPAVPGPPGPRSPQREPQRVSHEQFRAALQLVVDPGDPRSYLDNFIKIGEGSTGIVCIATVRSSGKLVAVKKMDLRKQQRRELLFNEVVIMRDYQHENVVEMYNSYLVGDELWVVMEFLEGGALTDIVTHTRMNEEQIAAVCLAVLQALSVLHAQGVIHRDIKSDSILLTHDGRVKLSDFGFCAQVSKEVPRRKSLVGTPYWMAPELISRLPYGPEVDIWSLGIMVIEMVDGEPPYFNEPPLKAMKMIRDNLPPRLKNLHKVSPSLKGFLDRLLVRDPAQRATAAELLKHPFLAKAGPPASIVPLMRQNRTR
T6 sequence (Q9P286 whole entry): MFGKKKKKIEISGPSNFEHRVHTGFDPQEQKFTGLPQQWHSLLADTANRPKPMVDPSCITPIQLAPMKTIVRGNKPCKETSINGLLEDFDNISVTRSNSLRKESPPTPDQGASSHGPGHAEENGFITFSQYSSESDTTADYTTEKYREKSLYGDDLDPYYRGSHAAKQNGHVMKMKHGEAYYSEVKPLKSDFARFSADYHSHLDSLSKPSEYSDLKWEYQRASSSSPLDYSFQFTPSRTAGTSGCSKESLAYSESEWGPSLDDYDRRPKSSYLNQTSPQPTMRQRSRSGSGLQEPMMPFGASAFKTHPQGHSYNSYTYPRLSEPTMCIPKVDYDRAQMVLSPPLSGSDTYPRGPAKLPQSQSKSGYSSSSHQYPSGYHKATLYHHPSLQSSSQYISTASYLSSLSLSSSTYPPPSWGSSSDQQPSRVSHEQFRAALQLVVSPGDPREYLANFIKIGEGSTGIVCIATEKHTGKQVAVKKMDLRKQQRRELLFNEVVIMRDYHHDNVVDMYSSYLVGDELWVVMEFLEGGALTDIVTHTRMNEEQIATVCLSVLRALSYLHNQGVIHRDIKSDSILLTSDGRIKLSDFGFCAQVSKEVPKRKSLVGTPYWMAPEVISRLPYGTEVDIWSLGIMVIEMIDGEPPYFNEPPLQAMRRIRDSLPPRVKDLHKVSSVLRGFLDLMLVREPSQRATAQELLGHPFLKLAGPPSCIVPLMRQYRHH
T3 sequence (P07947 whole entry): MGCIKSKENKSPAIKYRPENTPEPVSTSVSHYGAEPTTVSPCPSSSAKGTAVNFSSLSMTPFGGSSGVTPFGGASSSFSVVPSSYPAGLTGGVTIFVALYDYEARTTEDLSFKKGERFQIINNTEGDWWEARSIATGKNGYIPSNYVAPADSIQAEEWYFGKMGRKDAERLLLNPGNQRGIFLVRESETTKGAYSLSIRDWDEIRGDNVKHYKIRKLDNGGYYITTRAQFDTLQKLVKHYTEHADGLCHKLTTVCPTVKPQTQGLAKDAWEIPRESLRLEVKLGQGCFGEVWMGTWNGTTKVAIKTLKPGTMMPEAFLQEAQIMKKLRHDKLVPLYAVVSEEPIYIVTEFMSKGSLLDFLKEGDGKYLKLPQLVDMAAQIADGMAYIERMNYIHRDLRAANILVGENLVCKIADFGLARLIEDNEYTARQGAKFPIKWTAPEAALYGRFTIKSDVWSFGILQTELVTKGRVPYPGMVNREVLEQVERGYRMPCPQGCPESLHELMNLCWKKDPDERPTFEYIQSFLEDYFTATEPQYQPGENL

SMILES	remaining activity at 1 µM (SGK1)	remaining activity at 1 µM (DYRK2)	remaining activity at 1 µM (YES1)	remaining activity at 1 µM (PAK4)	remaining activity at 1 µM (TBK1)	remaining activity at 1 µM (PAK5)	remaining activity at 1 µM (PDK1)	remaining activity at 1 µM (PIM3)	remaining activity at 1 µM (BRK)	residual activity (SGK1; 1 μM)	residual activity (DYRK2; 1 μM)	residual activity (YES1; 1 μM)	residual activity (PAK4; 1 μM)	residual activity (TBK1; 1 μM)	residual activity (PAK5; 1 μM)	residual activity (PDK1; 1 μM)	residual activity (PIM3; 1 μM)	residual activity (BRK; 1 μM)
O=C1Nc2ccc(I)cc2/C1=C/c1cc(Br)c(O)c(Br)c1 [GW5074]	91%	13%	93%	94%	83%	77%	22%	6%	77%									
Oc1ncnc2c1c(-c1ccccc1)cn2-c1ccccc1 [F1386-0303, 5,7-diphenyl-7H-pyrrolo[2,3-d]pyrimidin-4-ol]	101%	93%	85%	105%	97%	105%	103%	74%	108%									
O=C1Cc2c([nH]c3ccc(Br)cc23)-c2ccccc2N1 [Kenpaullone]	101%	91%	100%	104%	90%	12%	64%	103%	97%									
COCCOc1ccc(-c2cn(-c3ccccc3)c3nc[nH]c(=O)c23)cc1 [DMX-5804, 5-[4-(2-methoxy-ethoxy)-phenyl]-7-phenyl-3,7-dihydro-pyrrolo[2,3-d]pyrimidin-4-one]	104%	115%	96%	100%	48%	105%	89%	88%	88%									
Nc1ncc(C(=O)NC2CN(C(=O)C3CC3)C2)c2ccc(-c3cccc(F)c3)nc12 [GNE-495]										55%	55%	53%	28%	104%	55%	90%	87%	94%
